Measurements from patent US20250257051A1, “SUBSTITUTED PYRIMIDINE COMPOUNDS AS TYK2 INHIBITORS” (1910 Genetics Inc., priority 2022, published 2025).
pKd: −log10 of the molar value. Where a name gives a salt, the structure may show the parent alone. Read-outs that look alike come from different tables or passages of the source.

Molecular target: human TYK2 (JH2domain-pseudokinase) (Homo sapiens (Human), UniProt P29597)
Assay: TYK2 JH2 Domain Binding Assay (KINOMEscan competition binding)
Settings: read-out: TYK JH2 (Kd)
Description: Binding constants for compounds disclosed herein may be determined by the KINOMEscan® assay developed by DiscoveRx. KINOMEscan® is based on a competition binding assay that quantitatively measures the ability of a compound to compete with an immobilized, active-site directed ligand. The assay is performed by combining three components: DNA-tagged kinase; immobilized ligand; and a test compound. The ability of the test compound to compete with the immobilized ligand is measure via quantitative PCR of the DNA tag.
Binding constants for compounds disclosed herein against the JH2 domain are determined by the following protocol for a KINOMEscan® assay (DiscoveRx). A fusion protein of a partial length construct of human TYK2 (JH2domain-pseudokinase) (amino acids G556 to D888 based on reference sequence NP 003322.3) and the DNA binding domain of NFkB is expressed in transiently transfected HEK293 cells. From these HEK 293 cells, extracts are prepared in M-PER extraction buffer (Pierce) in the presence of Protease Inhibitor Cocktail Complete (Roche) and Phosphatase Inhibitor Cocktail Set II (Merck) per manufacturers' instructions. The TYK2 (JH2domain-pseudokinase) fusion protein is labeled with a chimeric double-stranded DNA tag containing the NFkB binding site (5′-GGGAATTCCC-3′) fused to an amplicon for qPCR readout, which is added directly to the expression extract (the final concentration of DNA-tag in the binding reaction is 0.1 nM).
Streptavidin-coated magnetic beads (Dynal M280) are treated with a biotinylated small molecule ligand for 30 minutes at room temperature to generate affinity resins for the binding assays. The liganded beads are blocked with excess biotin and washed with blocking buffer (SeaBlock (Pierce), 1% BSA, 0.05% Tween 20, 1 mM DTT) to remove unbound ligand and to reduce nonspecific binding.
Extracts are used directly in binding assays without any enzyme purification steps at a >10,000-fold overall stock dilution (final DNA tagged enzyme concentration<0.1 nM). Extracts are loaded with DNA-tag and diluted into the binding reaction in a two-step process. First extracts are diluted 1:100 in 1× binding buffer (PBS/0.05% Tween 20/10 mM DTT/0.1% BSA/[…] sonicated salmon sperm DNA) containing 10 nM DNA-tag. This dilution is allowed to equilibrate at room temperature for 15 minutes and then subsequently diluted 1:100 in 1× binding buffer. Test compounds are prepared as 111× stocks in 100% DMSO. Kds are determined using an 11-point 3-fold compound dilution series with three DMSO control points. All compounds for Kd measurements are distributed by acoustic transfer (non-contact dispensing) in 100% DMSO. The compounds are then diluted directly into the assays such that the final concentration of DMSO is 0.9%. All reactions performed in polypropylene 384-well plates. Each is a final volume of 0.02 mL. Assays are incubated with shaking for 1 hour at room temperature. Then the beads are pelleted and washed with wash buffer (lx PBS, 0.05% Tween 20) to remove displaced kinase and test compound. The washed beads are re-suspended in elution buffer (lx PBS, 0.05% Tween 20, 0.5 μM non-biotinylated affinity ligand) and incubated at room temperature with shaking for 30 minutes. The kinase concentration in the eluates is measured by qPCR. qPCR reactions are assembled by adding 2.5 μL of kinase eluate to 7.5 μL of qPCR master mix containing 0.15 μM amplicon primers and 0.15 μM amplicon probe. The qPCR protocol consists of a 10-minute hot start at 95° C., followed by 35 cycles of 95° C. for 15 seconds, 60° C. for 1 minute.
Test compounds are prepared as 111× stocks in 100% DMSO. Kds are determined using an 11-point 3-fold compound dilution series with three DMSO control points. All compounds for Kd measurements are distributed by acoustic transfer (non-contact dispensing) in 100% DMSO. The compounds are then diluted directly into the assays such that the final concentration of DMSO is 0.9%. […]

[1] = KINOMEscan, 11-point 3-fold dilution, top concentration 30,000 nM, Kd measurements in duplicate

Chain of human TYK2 (JH2domain-pseudokinase) (P29597 556-888): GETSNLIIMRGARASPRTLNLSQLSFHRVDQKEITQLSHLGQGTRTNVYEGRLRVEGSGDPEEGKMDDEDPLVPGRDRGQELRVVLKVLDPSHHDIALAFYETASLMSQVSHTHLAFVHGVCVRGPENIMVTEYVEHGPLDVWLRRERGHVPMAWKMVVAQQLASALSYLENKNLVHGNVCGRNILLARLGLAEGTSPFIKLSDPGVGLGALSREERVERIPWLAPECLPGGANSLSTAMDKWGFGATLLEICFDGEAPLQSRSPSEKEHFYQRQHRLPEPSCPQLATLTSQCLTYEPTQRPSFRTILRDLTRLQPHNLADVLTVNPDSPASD

`CNC(=O)[C@@H]1CCN(c2ncc(C(N)=O)c(Nc3ccc(C4CC4)nc3)n2)C1` [Compound 4, (R)-4-((6-cyclopropylpyridin-3-yl)amino)-2-(3-(methylcarbamoyl)pyrrolidin-1-yl)pyrimidine-5-carboxamide] showed a pKd [1] of 7.42.

`COc1ccccc1Nc1nc(N2CCN(C(C)=O)CC2C)ncc1C(N)=O` (stereo not drawn) [Compound 59, 2-(4-acetyl-2-methylpiperazin-1-yl)-4-((2-methoxyphenyl)amino)pyrimidine-5-carboxamide] gave a pKd [1] of 6.57.

`CNC(=O)c1cnc(N2CCCN(C(C)=O)CC2)nc1Nc1cccc(-c2ncc(F)cn2)c1OC` [Compound 77, 2-(4-acetyl-1,4-diazepan-1-yl)-4-((3-(5-fluoropyrimidin-2-yl)-2-methoxyphenyl)amino)-N-methylpyrimidine-5-carboxamide] showed a pKd [1] of 6.77.

In the case of `CC(C)(C)OC(=O)N1CCCN(c2ncc(C(N)=O)c(Nc3ccc(C4CC4)nc3)n2)CC1` [Compound 47, Tert-Butyl 4-(S-carbamoyl-4-((6-cyclopropylpyridin-3-yl)amino)pyrimidin-2-yl)-1,4-diazepane-1-carboxylate], the pKd [1] was 5.17.

For `CC1CNCCN1c1ncc(C(N)=O)c(Nc2ccccc2S(C)(=O)=O)n1` (racemic) [Compound 63, 2-(2-methylpiperazin-1-yl)-4-((2-(methylsulfonyl)phenyl)amino)pyrimidine-5-carboxamide hydrochloride], the pKd [1] was 5.85.

For `CNC(=O)c1cnc(N2CCC(C(=O)O)CC2)nc1Nc1ccccc1OC` [Compound 33, 1-(4-((2-methoxyphenyl)amino)-5-(methylcarbamoyl)pyrimidin-2-yl)piperidine-4-carboxylic Acid], the pKd [1] was 6.15.

With `COc1ccccc1Nc1nc(N2CCC(C(=O)O)CC2)ncc1C(N)=O` [Compound 44, 1-(5-carbamoyl-4-((2-methoxyphenyl)amino)pyrimidin-2-yl)piperidine-4-carboxylic Acid] the pKd [1] was 5.62.

With `CNC(=O)c1cnc(N2CCN(C(=O)OC(C)(C)C)CC2C)nc1Nc1ccccc1OC` (stereo not drawn) [Compound 32, Tert-Butyl 4-(4-((2-methoxyphenyl)amino)-5-(methylcarbamoyl)pyrimidin-2-yl)-3-methylpiperazine-1-carboxylate] the pKd [1] was 4.77.

In the case of `COc1ccccc1Nc1nc(N2CCCN(C(C)=O)CC2)ncc1C(N)=O` [Compound 58, 2-(4-acetyl-1,4-diazepan-1-yl)-4-((2-methoxyphenyl)amino)pyrimidine-5-carboxamide], the pKd [1] was 5.74.

`COc1c(Nc2nc(N3CCC(C(=O)O)CC3)ncc2C(N)=O)cccc1-c1ncc(F)cn1` [Compound 38, 1-(5-carbamoyl-4-((3-(5-fluoropyrimidin-2-yl)-2-methoxyphenyl)amino)pyrimidin-2-yl)piperidine-4-carboxylic Acid] was tested, and the pKd [1] was 8.11.

`CNC(=O)c1cnc(N2CCN(C(=O)OC(C)(C)C)CC2C)nc1Nc1cccc(-c2ncc(F)cn2)c1OC` (stereo not drawn) [Compound 26, Tert-Butyl 4-(4-((3-(5-fluoropyrimidin-2-yl)-2-methoxyphenyl)amino)-5-(methylcarbamoyl)pyrimidin-2-yl)-3-methylpiperazine-1-carboxylate] was tested, and the pKd [1] was 6.72.

For `CNC(=O)c1cnc(N2CCCNCC2)nc1Nc1ccc(C2CC2)nc1` [Compound 22, 4-((6-cyclopropylpyridin-3-yl)amino)-2-(1,4-diazepan-1-yl)-N-methylpyrimidine-5-carboxamide Hydrochloride], the pKd [1] was 4.96.

Compound `CNC(=O)c1cnc(N2CCC(C(=O)NC)C2)nc1Nc1ccc(C2CC2)nc1` (stereo not drawn) [Compound 1, 4-((6-cyclopropylpyridin-3-yl)amino)-N-methyl-2-(3-(methylcarbamoyl)pyrrolidin-1-yl)pyrimidine-5-carboxamide] has a pKd [1] of 6.77.

For `CNC(=O)c1cnc(N2CCCN(C(=O)OC(C)(C)C)CC2)nc1Nc1cccc(-c2ncc(F)cn2)c1OC` [Compound 72, Tert-Butyl 4-(4-((3-(5-fluoropyrimidin-2-yl)-2-methoxyphenyl)amino)-5-(methylcarbamoyl)pyrimidin-2-yl)-1,4-diazepane-1-carboxylate], the pKd [1] was 5.35.

`CNC(=O)c1nnc(N2CCC(C(=O)NC)C2)cc1Nc1ccc(C2CC2)nc1` (stereo not drawn) [reference compound] gave a pKd (Table 4: pyrimidinyl compound of Formula I versus compounds with a different heteroaryl core) of 4.51.

`CCOC(=O)C1CCN(c2ncc(C(=O)NC)c(Nc3ccccc3OC)n2)CC1` [Compound 34, Ethyl 1-(4-((2-methoxyphenyl)amino)-5-(methylcarbamoyl)pyrimidin-2-yl)piperidine-4-carboxylate] gave a pKd [1] of 6.12.

`CCOC(=O)C1CCN(c2ncc(C(N)=O)c(Nc3ccccc3S(C)(=O)=O)n2)CC1` [Compound 16, Ethyl 1-(5-carbamoyl-4-((2-(methylsulfonyl)phenyl)amino)pyrimidin-2-yl)piperidine-4-carboxylate] gave a pKd [1] of 8.59.

`CNC(=O)c1cnc(N2CCN(C(C)=O)CC2C)nc1Nc1cccc(-c2ncc(F)cn2)c1OC` (stereo not drawn) [Compound 61, 2-(4-acetyl-2-methylpiperazin-1-yl)-4-((3-(5-fluoropyrimidin-2-yl)-2-methoxyphenyl)amino)-N-methylpyrimidine-5-carboxamide] showed a pKd [1] of 7.82.

With `CNC(=O)c1cnc(N2CC[C@@H](C(=O)NC)C2)nc1Nc1ccc(C2CC2)nc1` [Compound 9, (R)-4-((6-cyclopropylpyridin-3-yl)amino)-N-methyl-2-(3-(methylcarbamoyl)pyrrolidin-1-yl)pyrimidine-5-carboxamide] the pKd [1] was 6.62.

`CNC(=O)c1cnc(N2CCN(C(C)=O)CC2C)nc1Nc1ccccc1S(C)(=O)=O` (stereo not drawn) [Compound 76, 2-(4-acetyl-2-methylpiperazin-1-yl)-N-methyl-4-((2-(methylsulfonyl)phenyl)amino)pyrimidine-5-carboxamide] showed a pKd [1] of 6.68.

`CNC(=O)c1cnc(N2CCCC2)nc1Nc1ccc(C(=O)N2CCOCC2)cc1` [Compound 8, N-methyl-4-((4-(morpholine-4-carbonyl)phenyl)amino)-2-(pyrrolidin-1-yl)pyrimidine-5-carboxamide] gave a pKd [1] of 6.44.

`CS(=O)(=O)c1ccccc1Nc1nc(N2CCCNCC2)ncc1C(N)=O` [Compound 79, 2-(1,4-diazepan-1-yl)-4-((2-(methylsulfonyl)phenyl)amino)pyrimidine-5-carboxamide hydrochloride] showed a pKd [1] of 5.77.

Compound `CCOC(=O)C1CCN(c2ncc(C(N)=O)c(Nc3ccccc3OC)n2)CC1` [Compound 45, Ethyl 1-(5-carbamoyl-4-((2-methoxyphenyl)amino)pyrimidin-2-yl)piperidine-4-carboxylate] has a pKd [1] of 6.70.

In the case of `CCOC(=O)C1CCN(c2ncc(C(=O)NC)c(Nc3cccc(-c4ncc(F)cn4)c3OC)n2)CC1` [Compound 28, Ethyl 1-(4-((3-(5-fluoropyrimidin-2-yl)-2-methoxyphenyl)amino)-5-(methylcarbamoyl)pyrimidin-2-yl)piperidine-4-carboxylate], the pKd [1] was 8.64.

In the case of `CNC(=O)c1cnc(N2CCNCC2C)nc1Nc1ccccc1S(C)(=O)=O` (stereo not drawn) [Compound 69, N-methyl-2-(2-methylpiperazin-1-yl)-4-((2-(methylsulfonyl)phenyl)amino)pyrimidine-5-carboxamide Hydrochloride], the pKd [1] was 5.74.

Work on `CNC(=O)c1cnc(N2CC(C(=O)NC)C2)nc1Nc1ccc(C2CC2)nc1` [Compound 51, 4-((6-cyclopropylpyridin-3-yl)amino)-N-methyl-2-(3-(methylcarbamoyl)azetidin-1-yl)pyrimidine-5-carboxamide] yielded a pKd [1] of 5.82.

Compound `NC(=O)c1cnc(N2CCCNCC2)nc1Nc1ccc(C2CC2)nc1` [Compound 46, 4-((6-cyclopropylpyridin-3-yl)amino)-2-(1,4-diazepan-1-yl)pyrimidine-5-carboxamide Hydrochloride] has a pKd [1] of 5.18.
